≈ marks a conversion by molar mass, not a printed value. Calls of active or inactive are those of the source. The calls are words filed in the database; no cut-off is given here.
How the values were obtained:
Mycobacterium kansasii = assay: Antimycobacterial activity against Mycobacterium kansasii NCTC 10268 after 7 days by resazurin microtiter assay; type: functional; details: NCTC 10268, 168 h
[1] = Cytotoxicity against African green monkey Vero cells after 72 hrs by MTT assay; type: cell-based; details: chlorocebus sabaeus
Staphylococcus aureus [2] = assay: Antimicrobial activity against Staphylococcus aureus ATCC 25923 at 20 ug per disk after 18 to 24 hrs by agar diffusion assay; type: functional; details: read-out: DIZ
[3] = test system: Mycobacterium scrofulaceum; assay: Antimycobacterial activity against Mycobacterium scrofulaceum NCTC 10803 after 7 days by resazurin microtiter assay; type: functional; details: 168 h
Mycobacterium avium = assay: Antimycobacterial activity against Mycobacterium avium NCTC 08559 after 7 days by resazurin microtiter assay; type: functional; details: NCTC 08559, 168 h
Mycobacterium marinum = assay: Antimycobacterial activity against Mycobacterium marinum CIP 6423 after 7 days by resazurin microtiter assay; type: functional; details: CIP 6423, 168 h
[4] = molecular target: T1, Sterol 14alpha-demethylase (Mycobacterium tuberculosis) (UniProt P9WPP9); assay: Binding affinity to N-terminal His-tagged Mycobacterium tuberculosis H37Rv ATCC 25618 CYP51 expressed in Escherichia coli Rosetta (DE3) by spectrophotometric analysis
T1 sequence (whole entry): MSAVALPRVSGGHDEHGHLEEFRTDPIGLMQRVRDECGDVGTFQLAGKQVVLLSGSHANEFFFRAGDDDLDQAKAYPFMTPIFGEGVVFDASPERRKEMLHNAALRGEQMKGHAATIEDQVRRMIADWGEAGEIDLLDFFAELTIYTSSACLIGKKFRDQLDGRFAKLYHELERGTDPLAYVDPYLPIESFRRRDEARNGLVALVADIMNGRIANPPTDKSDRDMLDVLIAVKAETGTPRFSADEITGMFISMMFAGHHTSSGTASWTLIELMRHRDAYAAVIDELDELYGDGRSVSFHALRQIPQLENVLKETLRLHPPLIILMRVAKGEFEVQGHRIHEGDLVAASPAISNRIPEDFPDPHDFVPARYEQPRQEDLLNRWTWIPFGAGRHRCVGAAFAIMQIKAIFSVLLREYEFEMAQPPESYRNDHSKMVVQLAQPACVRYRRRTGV

[5] = test system: Mycobacterium tuberculosis; assay: Antimycobacterial activity against Mycobacterium tuberculosis H37Ra […] after 7 days by resazurin microtiter assay; type: functional; details: 168 h
Mycobacterium gordonae = assay: Antimycobacterial activity against Mycobacterium gordonae NCTC 10267 after 7 days by resazurin microtiter assay; type: functional; details: NCTC 10267, 168 h
[6] = test system: Mycobacterium intracellulare; assay: Antimycobacterial activity against Mycobacterium intracellulare NCTC 10425 after 7 days by resazurin microtiter assay; type: functional; details: NCTC 10425, 168 h
Candida albicans [7] = assay: Antimicrobial activity against Candida albicans 685 clinical isolate at 20 ug per disk after 18 to 24 hrs by agar diffusion assay; type: functional; details: read-out: DIZ
Escherichia coli [8] = assay: Antimicrobial activity against Escherichia coli ATCC 25922 at 20 ug per disk after 18 to 24 hrs by agar diffusion assay; type: functional; details: read-out: DIZ
Candida albicans [9] = assay: Antimicrobial activity against Candida albicans 685 clinical isolate at 5 ug per disk after 18 to 24 hrs by agar diffusion assay; type: functional; details: read-out: DIZ
Escherichia coli [10] = assay: Antimicrobial activity against Escherichia coli ATCC 25922 at 30 ug per disk after 18 to 24 hrs by agar diffusion assay; type: functional; details: read-out: DIZ
Staphylococcus aureus [11] = assay: Antimicrobial activity against Staphylococcus aureus ATCC 25923 at 30 ug per disk after 18 to 24 hrs by agar diffusion assay; type: functional; details: read-out: DIZ
[12] = Selectivity index, ratio of CC50 for African green monkey Vero cells to MIC for Mycobacterium tuberculosis H37Ra […]; type: toxicity, cell-based; details: read-out: Selectivity Index

Compound | MIC (Mycobacterium kansasii) [µM] | CC50 at 72 h [1] [µM] | zone of inhibition at 20 µg/disc (Staphylococcus aureus [2]) [mm] | MIC [3] [µM] | MIC (Mycobacterium avium) [µM] | MIC (Mycobacterium marinum) [µM] | Activity [4] | MIC [5] [µM] | MIC (Mycobacterium gordonae) [µM] | MIC [6] [µM] | zone of inhibition at 20 µg/disc (Candida albicans [7]) [mm] | zone of inhibition at 20 µg/disc (Escherichia coli [8]) [mm] | zone of inhibition at 5 µg/disc (Candida albicans [9]) [mm] | zone of inhibition at 30 µg/disc (Escherichia coli [10]) [mm] | zone of inhibition at 30 µg/disc (Staphylococcus aureus [11]) [mm] | selectivity ratio [12]
N/C(=N/NC(CC(=O)c1ccc(-n2ccnc2)cc1)c1ccc([N+](=O)[O-])cc1)c1ccccn1 (stereo not given) | 35.1 (≈ 16 µg/mL) | 23.1 | 13 | 8.8 (≈ 4.01 µg/mL) | 140 (≈ 63.8 µg/mL) | 35.1 (≈ 16 µg/mL) | inactive | 4.4 (≈ 2 µg/mL) | 8.8 (≈ 4.01 µg/mL) | > 140 | 5 | 5 | – | – | – | –
N/C(=N/NC(CC(=O)c1ccc(-n2ccnc2)cc1)c1ccccc1[N+](=O)[O-])c1ccccn1 (stereo not given) | 17.6 (≈ 8.02 µg/mL) | 48 | 13 | 8.8 (≈ 4.01 µg/mL) | 70.3 (≈ 32 µg/mL) | 35.1 (≈ 16 µg/mL) | inactive | 8.8 (≈ 4.01 µg/mL) | 8.8 (≈ 4.01 µg/mL) | 140 (≈ 63.8 µg/mL) | 4 | 6 | – | – | – | –
N/C(=N/NC(CC(=O)c1ccc(-n2ccnc2)cc1)c1cccc([N+](=O)[O-])c1)c1ccccn1 (stereo not given) | 8.8 (≈ 4.01 µg/mL) | 28.7 | 13 | 8.8 (≈ 4.01 µg/mL) | 140 (≈ 63.8 µg/mL) | 35.1 (≈ 16 µg/mL) | inactive | 4.4 (≈ 2 µg/mL) | 8.8 (≈ 4.01 µg/mL) | > 140 | 10 | 5 | – | – | – | –
N/C(=N/NC(CC(=O)c1ccc(-n2ccnc2)cc1)c1ccc(Cl)cc1Cl)c1ccccn1 (stereo not given) | 4.2 (≈ 2.01 µg/mL) | 27.8 | 17 | 16.7 (≈ 8.01 µg/mL) | 33.3 (≈ 16 µg/mL) | 33.3 (≈ 16 µg/mL) | inactive | 9 (≈ 4.31 µg/mL) | 9 (≈ 4.31 µg/mL) | 33.3 (≈ 16 µg/mL) | 8 | 6 | – | – | – | –
NNC(=O)c1ccncc1 [ISONIAZID] | – | > 7000 | – | 116 (≈ 15.9 µg/mL) | 116 (≈ 15.9 µg/mL) | 116 (≈ 15.9 µg/mL) | – | 0.9 (≈ 0.123 µg/mL) | 116 (≈ 15.9 µg/mL) | > 467 | – | – | – | – | – | –
C[C@@H]1[C@H](O)[C@@H](C)/C=C/C=C/C=C/C=C/C=C/C=C/C=C/[C@H](O[C@@H]2O[C@H](C)[C@@H](O)[C@H](N)[C@@H]2O)C[C@@H]2O[C@](O)(C[C@@H](O)C[C@@H](O)[C@H](O)CC[C@@H](O)C[C@@H](O)CC(=O)O[C@H]1C)C[C@H](O)[C@H]2C(=O)O [AMPHOTERICIN B] | – | – | – | – | – | – | – | – | – | – | – | – | 16 | – | – | –
N/C(=N/NC(CC(=O)c1ccc(-n2ccnc2)cc1)c1ccccc1F)c1ccccn1 (stereo not given) | 18.7 (≈ 8.01 µg/mL) | 62.1 | 14 | 18.7 (≈ 8.01 µg/mL) | 74.7 (≈ 32 µg/mL) | 18.7 (≈ 8.01 µg/mL) | inactive | 17.6 (≈ 7.54 µg/mL) | 4.7 (≈ 2.01 µg/mL) | 74.7 (≈ 32 µg/mL) | 5 | 7 | – | – | – | –
N/C(=N/NC(CC(=O)c1ccc(-n2ccnc2)cc1)c1cccc(Br)c1)c1ccccn1 (stereo not given) | 16.3 (≈ 7.98 µg/mL) | 51.3 | 19 | 32.7 (≈ 16 µg/mL) | 131 (≈ 64.1 µg/mL) | 16.3 (≈ 7.98 µg/mL) | inactive | 16.3 (≈ 7.98 µg/mL) | 2 (≈ 0.979 µg/mL) | 131 (≈ 64.1 µg/mL) | 13 | 8 | – | – | – | –
CC(=O)OCC1=C(C(=O)O)N2C(=O)[C@@H](NC(=O)Cc3cccs3)[C@H]2SC1 [CEPHALOTHIN] | – | – | – | – | – | – | – | – | – | – | – | – | – | 11 | 31 | –
N/C(=N/NC(CC(=O)c1ccc(-n2ccnc2)cc1)c1cccc(Cl)c1)c1ccccn1 (stereo not given) | 9 (≈ 4 µg/mL) | 68.6 | 22 | 18 (≈ 8.01 µg/mL) | 72 (≈ 32 µg/mL) | 18 (≈ 8.01 µg/mL) | inactive | 18 (≈ 8.01 µg/mL) | 4.5 (≈ 2 µg/mL) | 72 (≈ 32 µg/mL) | 11 | 7 | – | – | – | –
N/C(=N/NC(CC(=O)c1ccc(-n2ccnc2)cc1)c1ccc(F)cc1)c1ccccn1 (stereo not given) | 9.3 (≈ 3.98 µg/mL) | 78.8 | 20 | 18.7 (≈ 8.01 µg/mL) | 74.7 (≈ 32 µg/mL) | 18.7 (≈ 8.01 µg/mL) | inactive | 9.3 (≈ 3.98 µg/mL) | 18.7 (≈ 8.01 µg/mL) | 74.7 (≈ 32 µg/mL) | 6 | 6 | – | – | – | –
N/C(=N/NC(CC(=O)c1ccc(-n2ccnc2)cc1)c1ccc(Cl)cc1)c1ccccn1 (stereo not given) | 9 (≈ 4 µg/mL) | 78.8 | 20 | 18 (≈ 8.01 µg/mL) | 72 (≈ 32 µg/mL) | 18 (≈ 8.01 µg/mL) | inactive | 9 (≈ 4 µg/mL) | 4.5 (≈ 2 µg/mL) | 72 (≈ 32 µg/mL) | 9 | 8 | – | – | – | –
N/C(=N/NC(CC(=O)c1ccc(-n2ccnc2)cc1)c1ccccc1Cl)c1ccccn1 (stereo not given) | 18 (≈ 8.01 µg/mL) | 53.2 | 20 | 18 (≈ 8.01 µg/mL) | 72 (≈ 32 µg/mL) | 18 (≈ 8.01 µg/mL) | inactive | 36 (≈ 16 µg/mL) | 18 (≈ 8.01 µg/mL) | 144 (≈ 64.1 µg/mL) | 7 | 6 | – | – | – | –
N/C(=N/NC(CC(=O)c1ccc(-n2ccnc2)cc1)c1ccccc1Br)c1ccccn1 (stereo not given) | 16.3 (≈ 7.98 µg/mL) | 29 | 19 | 16.3 (≈ 7.98 µg/mL) | 65.4 (≈ 32 µg/mL) | 16.3 (≈ 7.98 µg/mL) | inactive | 32.7 (≈ 16 µg/mL) | 8.2 (≈ 4.01 µg/mL) | 131 (≈ 64.1 µg/mL) | 8 | 5 | – | – | – | –
N/C(=N/NC(CC(=O)c1ccc(-n2ccnc2)cc1)c1ccc(Br)cc1)c1ccccn1 (stereo not given) | 4.1 (≈ 2.01 µg/mL) | 298 | 20 | 16.3 (≈ 7.98 µg/mL) | 131 (≈ 64.1 µg/mL) | 8.2 (≈ 4.01 µg/mL) | inactive | 16.3 (≈ 7.98 µg/mL) | 2 (≈ 0.979 µg/mL) | 131 (≈ 64.1 µg/mL) | 8 | 6 | – | – | – | 18
Clc1ccc(COC(Cn2ccnc2)c2ccc(Cl)cc2Cl)cc1 (stereo not given) | – | – | – | – | – | – | Active | – | – | – | – | – | – | – | – | –
N/C(=N/NC(CC(=O)c1ccc(-n2ccnc2)cc1)c1ccccc1)c1ccccn1 (stereo not given) | 19.5 (≈ 8 µg/mL) | 63.5 | 14 | 19.5 (≈ 8 µg/mL) | 78 (≈ 32 µg/mL) | 19.5 (≈ 8 µg/mL) | inactive | 19.5 (≈ 8 µg/mL) | 9.7 (≈ 3.98 µg/mL) | 78 (≈ 32 µg/mL) | 5 | 7 | – | – | – | –
N/C(=N/NC(CC(=O)c1ccc(-n2ccnc2)cc1)c1cccc(F)c1)c1ccccn1 (stereo not given) | 9.3 (≈ 3.98 µg/mL) | 26.5 | 16 | 9.3 (≈ 3.98 µg/mL) | 74.7 (≈ 32 µg/mL) | 18.7 (≈ 8.01 µg/mL) | inactive | 4.7 (≈ 2.01 µg/mL) | 2.3 (≈ 0.985 µg/mL) | 74.7 (≈ 32 µg/mL) | 11 | 7 | – | – | – | –

Source: ChEMBL document CHEMBL3817752, “Antimycobacterial activity of new N(1)-[1-[1-aryl-3-[4-(1H-imidazol-1-yl)phenyl]-3-oxo]propyl]-pyridine-2-carboxamidrazone derivatives” (Bioorg Med Chem Lett, 2016)
